The values below come from ChEMBL document CHEMBL2331434, “Jatropholane-type diterpenes from Euphorbia sikkimensis” (J Nat Prod, 2013).

Bounds are passed on as bounds.

The species named for experiment [1] is Danio rerio. The experiment can be described thus: Antiangiogenic activity against wild AB-type transgenic zebrafish embryo expressing green fluorescent protein-labeled VEGFR2 assessed as inhibition of growth of intersegmental vessels at 33.6 uM treated at 24 hrs post fertilization measured after 48 hrs by alkaline phosphatase staining. In kind it is functional.

The test system of experiment [2] is A549. The experiment can be described thus: Cytotoxicity against human A549 cells assessed as inhibition of cell viability after 48 hrs by MTT assay. In kind it is functional, cell-based. Particulars: A549, 48 h.
The species entered for experiment [3] is Danio rerio. The experiment can be described thus: Antiangiogenic activity against wild AB-type transgenic zebrafish embryo expressing green fluorescent protein-labeled VEGFR2 assessed as inhibition of growth of intersegmental vessels treated at 24 hrs post fertilization measured after 48 hrs by alkaline phosphatase staining. In kind it is functional, organism-based.

Take `C=C1CC[C@H]2[C@@H]([C@@H]3[C@@H]1C1=C(C[C@@H](C)C1=O)C(=O)[C@H]3C)C2(C)C` [SIKKIMENOID B]: the “growth inhibition (GI)” value in experiment [1] is 41.1%; in experiment [3], “Dose-dependent effect”. Also, the IC50 in experiment [2] is more than 10 µM; in experiment [3], 43 µM.
Consider `C=C1CC[C@H]2[C@@H]([C@@H]3[C@@H]1C1=C(C[C@@](C)(O)C1=O)C(=O)[C@H]3C)C2(C)C` [SIKKIMENOID D], for which, in experiment [2], the 50% inhibitory concentration (IC50) is more than 10 µM.
On to `Clc1ccc(Nc2nnc(Cc3ccncc3)c3ccccc23)cc1` [VATALANIB], for which, in experiment [3], the IC50 is 0.23 µM.
Consider `C=C1CC[C@H]2[C@@H]([C@@H]3[C@@H]1C1=C(C[C@](C)(O)C1=O)C(=O)[C@H]3C)C2(C)C` [SIKKIMENOID C], for which, in experiment [2], the IC50 is more than 10 µM.
Still for that read-out and setting: in the case of `C=C1CC[C@H]2[C@@H]([C@@H]3[C@@H]1C1=C(C[C@H](C)C1=O)C(=O)[C@H]3C)C2(C)C` [SIKKIMENOID A] it was more than 10 µM.
